Test results published in patent publication US7799824B2, “Quaternary salt CCR2 antagonists” (OraPharma, Inc., priority 2004, dated 2010).
Values joined by “and” are separate entries in the source; they are usually repeats but may differ in a detail not shown here. Equal entries are not always repeated.

The compounds below were run against T1, CCR2 (Homo sapiens, UniProt P41597) (assay: MCP-1 Receptor Binding Assay in THP-1 Cells). Conditions: MCP-1 binding to CCR2; test concentration of 25 μM, unless indicated otherwise; read-out: % Inhibition Ligand Binding.
T1 sequence (P41597 1-360 isoform P41597-2): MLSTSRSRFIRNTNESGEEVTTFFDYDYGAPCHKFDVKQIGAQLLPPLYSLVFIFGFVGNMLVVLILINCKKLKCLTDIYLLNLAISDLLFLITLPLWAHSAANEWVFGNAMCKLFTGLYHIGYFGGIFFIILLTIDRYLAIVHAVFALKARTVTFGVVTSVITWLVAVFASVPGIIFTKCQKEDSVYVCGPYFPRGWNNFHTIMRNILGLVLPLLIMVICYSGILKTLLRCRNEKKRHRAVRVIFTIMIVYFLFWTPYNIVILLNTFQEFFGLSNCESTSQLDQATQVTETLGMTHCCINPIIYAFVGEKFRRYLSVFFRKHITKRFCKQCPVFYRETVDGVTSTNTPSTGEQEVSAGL
Procedure, shortened: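 THP-1 cells; bound radioactivity collected on filter plates and counted by scintillation. Buffer-only blanks subtracted, drug-treated values compared with vehicle; nonspecific binding defined with 1 μM unlabeled MCP-1.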

Row | Structure (SMILES) | inhibition at 25 µM [%]
1 | C[N+]1(Cc2ccc(NC(=O)C=Cc3ccc(Cl)c(Cl)c3)cc2)CCOCC1 [Cpd 60, 4-{4-[3-(3,4-dichloro-phenyl)-acryloylamino]-benzyl}-4-methyl-morpholin-4-ium iodide] | 20
2 | C[N+](C)(Cc1ccc(NC(=O)c2c(Cl)cccc2Cl)cc1)C1CCOCC1 [Cpd 12, [4-(2,6-dichloro-benzoylamino)-benzyl]-dimethyl-(tetrahydro-pyran-4-yl)-ammonium iodide] | 38
3 | C[N+](C)(Cc1cccc(NC(=O)c2cccc(C(F)(F)F)c2)c1)C1CCOCC1 [Cpd 65, dimethyl-(tetrahydro-pyran-4-yl)-[3-(3-trifluoromethyl-benzoylamino)-benzyl]-ammonium iodide] | 61

The remaining lines, values ahead:

Row | inhibition at 25 µM [%] | Structure (SMILES)
4 | 100 | C[N+](C)(Cc1ccc(NC(=O)C2=Cc3cc(F)ccc3OC2)cc1)C1CCCCC1 [Cpd 123, cyclohexyl-{4-[(6-fluoro-2H-chromene-3-carbonyl)-amino]-benzyl}-dimethyl-ammonium iodide]
5 | 100 | C[N+](C)(Cc1ccc(NC(=O)C2=Cc3cc(C(F)(F)F)ccc3OC2)cc1)C1CCCCC1 [Cpd 125, cyclohexyl-dimethyl-{4-[(6-trifluoromethyl-2H-chromene-3-carbonyl)-amino]-benzyl}-ammonium iodide]
6 | 36 | C[N+](C)(Cc1ccc(CNC(=O)C2=Cc3cc(Cl)c(Cl)cc3OCC2)cc1)C1CCOCC1 [Cpd 170, (4-{[(7,8-dichloro-2,3-dihydro-benzo[b]oxepine-4-carbonyl)-amino]-methyl}-benzyl)-dimethyl-(tetrahydro-pyran-4-yl)-ammonium iodide]
7 | 52 | C[N+](C)(Cc1ccc(NC(=O)c2sc3ccccc3c2Cl)cc1)C1CCOCC1 [Cpd 174, {4-[(3-chloro-benzo[b]thiophene-2-carbonyl)-amino]-benzyl}-dimethyl-(tetrahydro-pyran-4-yl)-ammonium iodide]
8 | -21 | C[N+](C)(Cc1ccc(CNC(=O)C2=Cc3c(ccc4ccccc34)OC2)cc1)C1CCOCC1 [Cpd 141, (4-{[(3H-benzo[f]chromene-2-carbonyl)-amino]-methyl}-benzyl)-dimethyl-(tetrahydro-pyran-4-yl)-ammonium iodide]
9 | 27 | Cc1oc(-c2ccc(Cl)cc2)cc1C(=O)NCc1ccc(C[N+](C)(C)C2CCOCC2)cc1 [Cpd 150, [4-({[5-(4-chloro-phenyl)-2-methyl-furan-3-carbonyl]-amino}-methyl)-benzyl]-dimethyl-(tetrahydro-pyran-4-yl)-ammonium iodide]
10 | 17 | C[N+](C)(Cc1ccc(NC(=O)c2cncc(Br)c2)cc1)C1CCOCC1 [Cpd 172, {4-[(5-bromo-pyridine-3-carbonyl)-amino]-benzyl}-dimethyl-(tetrahydro-pyran-4-yl)-ammonium iodide]
11 | 100 | C[N+](C)(Cc1ccc(NC(=O)C2=Cc3c(F)cccc3OC2)cc1)C1CCCCC1 [Cpd 124, cyclohexyl-{4-[(5-fluoro-2H-chromene-3-carbonyl)-amino]-benzyl}-dimethyl-ammonium iodide]

Same assay, conditions: THP-1 cells, 0.5 nM 125I labeled MCP-1, 2 hours at 30° C.; read-out: Mean Ligand Binding IC50 (inhibition of MCP-1 binding to CCR2)

Row | Structure (SMILES) | IC50
12 | C[N+](C)(Cc1ccc(NC(=O)c2ccc3ccccc3c2)cc1)C1CCOCC1 [Cpd 90, dimethyl-{4-[(naphthalene-2-carbonyl)-amino]-benzyl}-(tetrahydro-pyran-4-yl)-ammonium iodide] | 220 nM
13 | C[N+](C)(Cc1ccc(NC(=O)c2ccc3ccc(Br)cc3c2)cc1)C1CCCCC1 [Cpd 94, {4-[(7-bromo-naphthalene-2-carbonyl)-amino]-benzyl}-cyclohexyl-dimethyl-ammonium iodide] | 1300 nM
14 | C[N+]1(Cc2ccc(NC(=O)C=Cc3ccc(Cl)c(Cl)c3)cc2)CCCCC1 [Cpd 53, 1-{4-[3-(3,4-dichloro-phenyl)-acryloylamino]-benzyl}-1-methyl-piperidinium iodide] | 3200 nM
15 | C[N+](C)(Cc1ccc(NC(=O)c2c(Cl)cccc2Cl)cc1)C1CCCCC1 [Cpd 78, cyclohexyl-[4-(2,6-dichloro-benzoylamino)-benzyl]-dimethyl-ammonium iodide] | 13400 nM
16 | C[N+]1(Cc2cccc(NC(=O)C=Cc3cccc(Br)c3)c2)CCCCC1 [Cpd 52, 1-{3-[3-(3-bromo-phenyl)-acryloylamino]-benzyl}-1-methyl-piperidinium iodide] | 2600 nM
17 | C[N+](C)(Cc1cccc(NC(=O)C=Cc2ccc(F)cc2)c1)C1CCCCC1 [Cpd 84, cyclohexyl-{3-[3-(4-fluoro-phenyl)-acryloylamino]-benzyl}-dimethyl-ammonium iodide] | 3200 nM
18 | Cc1ccc(C(=O)Nc2ccc(C[N+](C)(C)C3CCOCC3)cc2)cc1Cl [Cpd 28, [4-(3-chloro-4-methyl-benzoylamino)-benzyl]-dimethyl-(tetrahydro-pyran-4-yl)-ammonium iodide] | 460 nM
19 | C[N+](C)(Cc1ccc(NC(=O)C2=Cc3c(Cl)cc(Cl)cc3OC2)cc1)C1CCOCC1 [Cpd 100, {4-[(5,7-dichloro-2H-chromene-3-carbonyl)-amino]-benzyl}-dimethyl-(tetrahydro-pyran-4-yl)-ammonium iodide] | 520 nM
20 | C[N+](C)(Cc1ccc(NC(=O)C=Cc2cc(F)cc(F)c2)cc1)C1CCOCC1 [Cpd 42, {4-[3-(3,5-difluoro-phenyl)-acryloylamino]-benzyl}-dimethyl-(tetrahydro-pyran-4-yl)-ammonium iodide] | 5700 nM
21 | C[N+](C)(Cc1ccc(NC(=O)c2ccc(Cl)c(Cl)c2)cc1)C[C@H]1CCCO1 [Cpd 16, (2R)-[4-(3,4-dichloro-benzoylamino)-benzyl]-dimethyl-(tetrahydro-furan-2-ylmethyl)-ammonium iodide] | 850 nM
22 | C[N+](C)(Cc1ccc(NC(=O)C=Cc2ccc(Cl)c(Cl)c2)cc1)C1CCCCC1 [Cpd 71, cyclohexyl-{4-[3-(3,4-dichloro-phenyl)-acryloylamino]-benzyl}-dimethyl-ammonium iodide] | 170 nM and 320 nM
23 | C[N+](C)(Cc1ccc(NC(=O)c2cc(Cl)ccc2Cl)cc1)C1CCOCC1 [Cpd 11, [4-(2,5-dichloro-benzoylamino)-benzyl]-dimethyl-(tetrahydro-pyran-4-yl)-ammonium iodide] | 3100 nM

Results, then the compound that gave them:

Row | IC50 | Structure (SMILES)
24 | 190 nM | C[N+](C)(Cc1ccc(NC(=O)C2=Cc3cc(Cl)cc(Cl)c3OC2)cc1)C1CCOCC1 [Cpd 102, {4-[(6,8-dichloro-2H-chromene-3-carbonyl)-amino]-benzyl}-dimethyl-(tetrahydro-pyran-4-yl)-ammonium iodide]
25 | 200 nM | Cc1cc(Cl)cc2c1OCC(C(=O)Nc1ccc(C[N+](C)(C)C3CCCCCC3)cc1)=C2 [Cpd 118, {4-[(6-chloro-8-methyl-2H-chromene-3-carbonyl)-amino]-benzyl}-cycloheptyl-dimethyl-ammonium iodide]
26 | 1500 nM | C[N+](C)(Cc1ccc(NC(=O)c2cc(Cl)sc2Cl)cc1)C1CCOCC1 [Cpd 175, {4-[(2,5-dichloro-thiophene-3-carbonyl)-amino]-benzyl}-dimethyl-(tetrahydro-pyran-4-yl)-ammonium iodide]
27 | 690 nM | C[N+](C)(Cc1ccc(NC(=O)c2cc3ccccc3o2)cc1)C1CCCCC1 [Cpd 157, {4-[(benzofuran-2-carbonyl)-amino]-benzyl}-cyclohexyl-dimethyl-ammonium iodide]
28 | 580 nM | C[N+](C)(Cc1ccc(NC(=O)C2=Cc3cc(Cl)cc(Cl)c3OC2)cc1)C1CCSC1 (centres unmarked) [Cpd 122, {4-[(6,8-dichloro-2H-chromene-3-carbonyl)-amino]-benzyl}-dimethyl-(tetrahydro-thiophen-3-yl)-ammonium iodide]
29 | 170 nM | C[N+](C)(Cc1ccc(NC(=O)C2=Cc3cc(Cl)cc(Cl)c3OC2)cc1)C1CCCCC1 [Cpd 107, cyclohexyl-{4-[(6,8-dichloro-2H-chromene-3-carbonyl)-amino]-benzyl}-dimethyl-ammonium iodide]
30 | 600 nM | C[N+](C)(Cc1ccc(NC(=O)C2=Cc3ccc(Cl)c(Cl)c3OC2)cc1)C1CCCCC1 [Cpd 116, cyclohexyl-{4-[(7,8-dichloro-2H-chromene-3-carbonyl)-amino]-benzyl}-dimethyl-ammonium iodide]
31 | 4600 nM | C[N+](C)(Cc1ccc(NC(=O)c2cc(-c3ccc(Cl)cc3)oc2C(F)(F)F)cc1)C1CCCCC1 [Cpd 154, (4-{[5-(4-chloro-phenyl)-2-trifluoromethyl-furan-3-carbonyl]-amino}-benzyl)-cyclohexyl-dimethyl-ammonium iodide]
32 | 260 nM | C[N+](C)(Cc1ccc(NC(=O)c2cc3ccccc3s2)cc1)C1CCOCC1 [Cpd 176, {4-[(benzo[b]thiophene-2-carbonyl)-amino]-benzyl}-dimethyl-(tetrahydro-pyran-4-yl)-ammonium iodide]
33 | 240 nM | C[N+](C)(Cc1ccc(NC(=O)C2=Cc3cc(Cl)c(Cl)cc3OCC2)cc1)C1CCOCC1 [Cpd 167, {4-[(7,8-dichloro-2,3-dihydro-benzo[b]oxepine-4-carbonyl)-amino]-benzyl}-dimethyl-(tetrahydro-pyran-4-yl)-ammonium iodide]
34 | 1000 nM | C[N+](C)(Cc1ccc(NC(=O)C2=Cc3c(ccc4ccccc34)OC2)cc1)CC1CCOCC1 [Cpd 140, {4-[(3H-benzo[f]chromene-2-carbonyl)-amino]-benzyl}-dimethyl-(tetrahydro-pyran-4-ylmethyl)-ammonium iodide]
35 | 400 nM | Cn1c(C(=O)Nc2ccc(C[N+](C)(C)C3CCOCC3)cc2)cc2ccccc21 [Cpd 158, dimethyl-{4-[(1-methyl-1H-indole-2-carbonyl)-amino]-benzyl}-(tetrahydro-pyran-4-yl)-ammonium iodide]
